Assay results reported in patent US8163729B2 (Wyeth, priority 2007, dated 2012).
Structures can show the parent of a compound that is named as a salt. Values belong to the compound of their own block, whether it stands above or below them.

Legend:
[1] = hygroscopicity / Dynamic Vapor Sorption (DVS) of hydrochloride salt crystal forms; format: physicochemical; conditions: for hygroscopicity (Crystal Form Table) / hygroscopicity: hydrochloride salt crystal forms; for water absorbed eventually: 90% RH
Description: Dynamic Vapor Sorption (DVS) was done at 26° C.

[2] = target: T1, alpha7 nicotinic acetylcholine receptor (Rattus norvegicus, UniProt Q05941); assay: functional FLIPR assay, alpha7 nAChR stably expressed in GH4C1 cells; format: cell-based; conditions: agonist, concentration range 0.001 to 30 microM
T1 construct: expressed in transfected cells

[3] = solubility in water of hydrochloride salt crystal forms; format: physicochemical

T1 sequence (Q05941 23-502): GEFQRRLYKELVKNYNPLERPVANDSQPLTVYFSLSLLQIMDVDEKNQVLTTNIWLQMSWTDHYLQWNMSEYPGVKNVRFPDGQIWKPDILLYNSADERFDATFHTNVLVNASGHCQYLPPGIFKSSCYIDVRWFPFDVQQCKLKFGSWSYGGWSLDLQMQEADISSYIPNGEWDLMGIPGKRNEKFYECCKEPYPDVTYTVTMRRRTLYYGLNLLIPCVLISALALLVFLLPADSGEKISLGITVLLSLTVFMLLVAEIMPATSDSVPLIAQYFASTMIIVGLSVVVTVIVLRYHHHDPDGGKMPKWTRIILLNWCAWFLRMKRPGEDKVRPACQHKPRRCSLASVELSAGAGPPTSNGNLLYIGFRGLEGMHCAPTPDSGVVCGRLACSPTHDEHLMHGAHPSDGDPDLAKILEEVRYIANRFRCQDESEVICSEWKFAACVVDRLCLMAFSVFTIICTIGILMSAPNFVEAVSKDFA

SMILES: COc1ccc(-c2cc(NC(=O)CCCCN3CCCN(C(C)=O)CC3)[nH]n2)cc1 (as salt: hydrochloric acid salt) [5-(4-Acetyl-[1,4]diazepan-1-yl)-pentanoic acid [5-(4-methoxy-phenyl)-2H-pyrazol-3-yl]-amide]
melting point: 185 °C

SMILES: COc1ccc(-c2cc(NC(=O)CCCCN3CCCN(C(C)=O)CC3)[nH]n2)cc1 (as salt: hydrochloride) [Example 4, 5-(4-Acetyl-[1,4]diazepan-1-yl)-pentanoic acid [5-(4-methoxy-phenyl)-2H-pyrazol-3-yl]-amide]
melting point: 132 to 133 °C

SMILES: COc1ccc(-c2cc(NC(=O)CCCCN3CCCN(C(C)=O)CC3)[nH]n2)cc1 [Crystal Form III, 5-(4-Acetyl-[1,4]diazepan-1-yl)-pentanoic acid [5-(4-methoxy-phenyl)-2H-pyrazol-3-yl]-amide]
hygroscopicity (Crystal Form Table) [1]: Hygroscopic

SMILES: COc1ccc(-c2cc(NC(=O)CCCCN3CCCN(C(C)=O)CC3)[nH]n2)cc1 [Crystal Form V, 5-(4-Acetyl-[1,4]diazepan-1-yl)-pentanoic acid [5-(4-methoxy-phenyl)-2H-pyrazol-3-yl]-amide]
water uptake ([1]; at RH 50%): (7% at RH | hygroscopicity (Crystal Form Table) [1]: Hygroscopic

SMILES: C[N+]1(C)CCN(c2ccccc2)CC1 [DMPP]
EC50 [2]: 980 ± 470 nM

Further lines, results first:

water absorbed eventually ([1]; DVS at 26° C.): up to 2% | relative humidity at which the form picks up moisture ([1]; DVS at 26° C.): about 50% | moisture gain ([1]; at 70-100% RH, lost without significant hysteresis on decreasing RH): at least 12% | moisture gain ([1]; equilibrated at RH less than or equal to 70%): about 0.5% | hygroscopicity [1]: relatively non-hygroscopic | solubility in water [3]: considerably soluble in water
SMILES: COc1ccc(-c2cc(NC(=O)CCCCN3CCCN(C(C)=O)CC3)n[nH]2)cc1.Cl [Form I, 5-(4-acetyl-1,4-diazepan-1-yl)-N-(5-(4-methoxyphenyl)-1H-pyrazol-3-yl)pentanamide hydrochloric salt Form I]

water absorbed eventually ([1]; DVS at 26° C.): up to 7% | relative humidity at which the form picks up moisture ([1]; DVS at 26° C.): about 20% | water held at low RH ([1]; RH 0%, DVS at 26° C.): 2% | hygroscopicity [1]: non-hygroscopic | solubility in water [3]: considerably soluble in water
SMILES: COc1ccc(-c2cc(NC(=O)CCCCN3CCCN(C(C)=O)CC3)n[nH]2)cc1.Cl [Form II, 5-(4-acetyl-1,4-diazepan-1-yl)-N-(5-(4-methoxyphenyl)-1H-pyrazol-3-yl)pentanamide hydrochloric salt Form II]

form change after DVS test [1]: NO form change
SMILES: COc1ccc(-c2cc(NC(=O)CCCCN3CCCN(C(C)=O)CC3)n[nH]2)cc1.Cl [mono-HCl salt, 5-(4-Acetyl-[1,4]diazepan-1-yl)-pentanoic acid [5-(4-methoxy-phenyl)-1H-pyrazol-3-yl]-amide (mono hydrochloride salt)]
